As a reminder, the IC50 is the concentration at which inhibition is half-maximal. Higher therefore signals lower potency.

Data set [1] concerns primary CD4+ T cells. As to the kind of experiment: 72 h viability.
Data set [2] addresses T1, HIV-Nef (Human immunodeficiency virus type 1, UniProt P03406).
T1 sequence (P03406 2-206): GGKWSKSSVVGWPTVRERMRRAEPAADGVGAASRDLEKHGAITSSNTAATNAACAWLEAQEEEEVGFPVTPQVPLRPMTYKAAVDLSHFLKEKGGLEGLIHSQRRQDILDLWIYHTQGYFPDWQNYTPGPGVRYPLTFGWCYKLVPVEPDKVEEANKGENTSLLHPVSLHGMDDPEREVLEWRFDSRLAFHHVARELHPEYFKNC
Format: cell-based, HIV-1. To be noted: for Nef inhibitory potency, in words (relative to parent or comparator) / Nef IC50: 24 h; for restoration of MHC-I levels on infected (GFP+) cells: ΔGPE transduced 48 h then treated 24 h, compared to uninfected (GFP-) cells; for Nef IC50: HIV ΔGPE transduced primary CD4+ T cells, upper limit of assay 1000 nM.

For another data set, the system named is MHC-I HLA-A2. Format: cell-based, human. To be noted: ΔGPEN; treated 24 h.
The target in data set [3] is V-ATPase (Homo sapiens, UniProt P27449). As to the kind of experiment: cell-based. Format: cell-based. To be noted: for Lysotracker IC50 / V-ATPase inhibition (Lysotracker), in words: 24 h; for Lysotracker IC50: lysosomal neutralization / V-ATPase inhibition.
V-ATPase (Homo sapiens, UniProt P27449), sequence (P27449 whole entry, looked up): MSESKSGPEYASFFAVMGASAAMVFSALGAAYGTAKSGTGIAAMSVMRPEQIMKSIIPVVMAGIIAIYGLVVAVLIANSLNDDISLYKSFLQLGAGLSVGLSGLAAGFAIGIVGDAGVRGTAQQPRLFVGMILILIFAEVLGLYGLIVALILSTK
For data set [4], the target named is T1, HIV-Nef. Conditions: cited from earlier work; for MHC-I HLA-A2 restoration in HIV-infected primary T cells, side-by-side assays: B9 up to more than 10μM, CMA nanomolar.
The test system of the next data set is Nef. To be noted: cited from earlier work.
The test system of data set [5] is HIV-1 infected CD4+ T cells. To be noted: single digit micromolar concentrations; cited from earlier work.
Data set [6] deals with Nef overexpressing HEK293T cells. Conditions: single digit micromolar concentrations; cited from earlier work.
For data set [7], the system named is primary CD4+ T cells. As to the kind of experiment: 24 h viability.
For data set [8], the system named is V-ATPase. Conditions: cited from earlier work.

Entries after “also recorded” stand apart in the source; their conditions may differ.

Take `C/C=C/[C@H]1O[C@@](O)([C@@H](C)[C@H](O)[C@H](C)[C@H]2OC(=O)/C(OC)=C/C(C)=C/[C@@H](C)[C@@H](O)[C@@H](C)[C@@H](OC(C)=O)[C@H](C)C/C(C)=C/C=C/[C@@H]2OC)C[C@@H](O[C@H]2C[C@@H](OC(C)=O)[C@H](OC(N)=O)[C@@H](C)O2)[C@@H]1C` [compound 31, 3’,9-diacetyl CMB]: in the data set on primary CD4+ T cells [1], the “toxicity, in words” value is given as “reducing toxicity”.

Regarding `CO/C1=C\C(C)=C\[C@@H](C)[C@@H](O)[C@@H](C)C/C(C)=C/C=C/[C@H](OC)[C@@H]([C@@H](C)[C@@H](O)[C@H](C)[C@H]2C[C@@H](O)[C@H](C)[C@@H](C(C)C)O2)OC1=O` [compound 9, 19-deoxy Baf A1], the “Nef inhibitory potency, in words (relative to parent or comparator)” value at HIV-Nef [2] is given as “decreased potency”.

Regarding `C/C=C/[C@H]1O[C@@](O)([C@@H](C)[C@H](O)[C@H](C)[C@H]2OC(=O)/C(OC)=C/C(C)=C/[C@@H](C)[C@@H](O)[C@@H](CC)[C@@H](OC(C)=O)[C@H](C)C/C(C)=C/C=C/[C@@H]2OC)C[C@@H](O[C@H]2C[C@@H](OC(C)=O)[C@H](OC(N)=O)[C@@H](C)O2)[C@@H]1C` [compound 33, 3’,9-diacetyl CMA], on HIV-Nef [2], the “restoration of MHC-I levels on infected (GFP+) cells” value is “restored MHC-I levels”. In the data set on MHC-I HLA-A2, the “MHC-I surface levels in cells lacking Nef” value is reported as “did not substantially alter MHC-I surface levels”.

In the case of `CO/C1=C\C(C)=C\[C@@H](C)C(=O)[C@@H](C)C/C(C)=C/C=C/[C@H](OC)[C@@H]([C@@H](C)[C@@H](O)[C@H](C)[C@@]2(O)CC(=O)[C@H](C)[C@@H](C(C)C)O2)OC1=O` [compound 21], the “Nef IC50” value at HIV-Nef [2] was “above the activity threshold”. In addition, at V-ATPase [3], the “Lysotracker IC50” value is “above the activity threshold”.

With `C/C=C/[C@H]1O[C@@](O)([C@@H](C)[C@H](O)[C@H](C)[C@H]2OC(=O)/C(OC)=C/C(C)=C/[C@@H](C)[C@@H](O)[C@@H](CC)[C@@H](O)[C@H](C)C/C(C)=C/C=C/[C@@H]2OC)C[C@@H](O[C@H]2C[C@@H](O)[C@H](OC(N)=O)[C@@H](C)O2)[C@@H]1C` [compound 1, concanamycin A, reference compound], at HIV-Nef [2], the “restoration of MHC-I levels on infected (GFP+) cells” value is given as “restored MHC-I levels”. At V-ATPase [3], it took 1.7 nM to reach half-maximal inhibition (IC50). The “MHC-I surface levels in cells lacking Nef” value in the data set on MHC-I HLA-A2 is recorded as “did not substantially alter MHC-I surface levels”. Besides, at HIV-Nef [4], the “MHC-I HLA-A2 restoration in HIV-infected primary T cells, side-by-side assays” value is “near-fully restore”. In the data set with Nef, the “binding between Nef and CMA” value is given as “no binding”.

As to `CCCCC(=O)O[C@@H]1C[C@](O)([C@@H](C)[C@H](O)[C@H](C)[C@H]2OC(=O)/C(OC)=C/C(C)=C/[C@@H](C)[C@@H](O)[C@@H](C)C/C(C)=C/C=C/[C@@H]2OC)O[C@H](C(C)C)[C@H]1C` [compound 14], on HIV-Nef [2], the “Nef inhibitory potency, in words (relative to parent or comparator)” value is on record as “decreased potency; also recorded: opposite effect”.

For the molecule `CO/C1=C\C(C)=C\[C@@H](C)[C@@H](O)[C@@H](C)C/C(C)=C/C=C/[C@H](OC)[C@@H]([C@@H](C)[C@@H](O)[C@H](C)[C@@]2(O)C[C@@H](O[C@@H]3O[C@@H](C)[C@H](O)[C@@H](O)[C@H]3OC)[C@H](C)[C@@H](C(C)C)O2)OC1=O` [compound 18, leucanicidin, reference compound], the “toxicity, in words” value in the data set with primary CD4+ T cells [1] is listed as “significantly more toxic”.

Regarding `C=CC(C)C(OC(=O)[C@@H](C)[C@H](O)[C@H](C)[C@H]1OC(=O)/C(OC)=C/C(C)=C/[C@@H](C)[C@@H](O)[C@@H](C)C/C(C)=C/C=C/[C@@H]1OC)C(C)C` (stereo partly drawn) [compound 12], the “decrease in Nef potency compared to 2” value at HIV-Nef [2] (vs Baf A1) worked out at 26 fold. For the same molecule, on V-ATPase [3], the “V-ATPase inhibition (Lysotracker), in words” value is on record as “Dramatic reductions”. Also, the “toxicity, in words” value in the data set on primary CD4+ T cells [1] was “Dramatic reductions”.

As to `CC[C@H](C)C(=O)O[C@H]1C[C@@H](C)C=C2C=C[C@H](C)[C@H](CC[C@@H]3C[C@@H](O)CC(=O)O3)[C@H]21` [Lovastatin], on HIV-Nef [4], the “MHC-I HLA-A2 restoration in HIV-infected primary T cells, side-by-side assays” value is reported as “partially restored” and the “concentration for partial MHC-I restoration, relative to CMA” value is recorded as 2,000 fold. Moreover, the “surface expression of MHC-1 and CD4” value in data set [5] was “increases surface expression”. In addition, the “surface expression of SERINC5” value in data set [6] is given as “increases surface expression”.

Regarding `C[C@@H]1C[C@H](C)C[C@H](C)[C@@H](O)CC(=O)O[C@H]([C@@H]2CCC[C@H]2C(=O)O)C/C=C/C=C(/C#N)[C@H](O)[C@@H](C)C1` [S1, borrelidin], in the data set with primary CD4+ T cells [7], the “toxicity at 24 h, in words” value is “toxic at 24-hrs”.

Consider `CO/C1=C\C(C)=C\[C@@H](C)[C@@H](O)[C@@H](C)C/C(C)=C/C=C/[C@H](OC)[C@@H]([C@@H](C)[C@@H](O)[C@H](C)[C@@]2(OC)C[C@@H](O)[C@H](C)[C@@H](C(C)C)O2)OC1=O` [compound 8], for which the “Nef inhibitory potency, in words (relative to parent or comparator)” value on HIV-Nef [2] is listed as “decreased potency”.

Turning to `C/C=C/[C@H]1O[C@@](O)([C@@H](C)[C@H](O)[C@H](C)[C@H]2OC(=O)/C(OC)=C/C(C)=C/[C@@H](C)[C@@H](O)[C@@H](C)[C@@H](O)[C@H](C)C/C(C)=C/C=C/[C@@H]2OC)C[C@@H](O[C@H]2C[C@@H](O)[C@H](OC(N)=O)[C@@H](C)O2)[C@@H]1C` [compound 22, concanamycin B, reference compound], the “decrease in Nef inhibitory potency compared to CMA (1)” value at HIV-Nef [2] (vs CMA) is approximately 10 fold. In addition, on V-ATPase [3], the “V-ATPase inhibition (Lysotracker), in words” value is “even greater decrease in V-ATPase inhibitory potency”.

Regarding `CO/C1=C\C(C)=C\[C@@H](C)[C@@H](O)[C@@H](C)C/C(C)=C/C=C/[C@H](OC)[C@@H]([C@@H](C)[C@@H](O)[C@H](C)[C@H]2C=C(O)[C@H](C)[C@@H](C(C)C)O2)OC1=O` [compound 11], the “Nef inhibitory potency, in words (relative to parent or comparator)” value on HIV-Nef [2] is given as “decreased potency”.

Consider `CCCCCCCCC(=O)O[C@@H]1C[C@](O)([C@@H](C)[C@H](O)[C@H](C)[C@H]2OC(=O)/C(OC)=C/C(C)=C/[C@@H](C)[C@@H](O)[C@@H](C)C/C(C)=C/C=C/[C@@H]2OC)O[C@H](C(C)C)[C@H]1C` [compound 15], for which, on HIV-Nef [2], the “Nef inhibitory potency, in words (relative to parent or comparator)” value is reported as “decreased potency; also recorded: opposite effect”.

Take `C/C=C/C=C/[C@H]1O[C@@](O)([C@@H](C)[C@H](O)[C@H](C)[C@H]2OC(=O)/C(OC)=C/C(C)=C/[C@@H](C)[C@@H](O)[C@@H](C)C/C(C)=C/C=C/[C@@H]2OC)C[C@@H](O[C@H]2C[C@@H](O)[C@H](O)[C@@H](C)O2)[C@@H]1C` [compound 19, PC-766B, reference compound]: the “toxicity, in words” value with primary CD4+ T cells [1] was “significantly more toxic”.

Consider `CO/C1=C\C(C)=C\[C@@H](C)[C@@H](O)[C@@H](C)C/C(C)=C/C=C/[C@H](OC)[C@@H]([C@@H](C)[C@@H](O)[C@H](C)[C@H]2C[C@@H](OC)[C@H](C)[C@@H](C(C)C)O2)OC1=O` [compound 10], for which, on HIV-Nef [2], the “Nef inhibitory potency, in words (relative to parent or comparator)” value is “decreased potency”.

Consider bafilomycin D [Baf D], for which, at HIV-Nef [4], the “Nef inhibition, in words” value is listed as “poor inhibitor”. Moreover, the “V-ATPase inhibition, in words” value in the data set on V-ATPase [8] was “poor inhibitor”.

Consider `C=C/C=C/C(=O)O[C@@H]1C[C@](O)([C@@H](C)[C@H](O)[C@H](C)[C@H]2OC(=O)/C(OC)=C/C(C)=C/[C@@H](C)[C@@H](O)[C@@H](C)C/C(C)=C/C=C/[C@@H]2OC)O[C@H](C(C)C)[C@H]1C` [compound 16], for which the “Nef inhibitory potency, in words (relative to parent or comparator)” value on HIV-Nef [2] was “decreased potency; also recorded: improved potency compared to 14 or 15”.

On to `C/C=C/[C@H]1O[C@@H]([C@@H](C)[C@H](O)[C@H](C)[C@H]2OC(=O)/C(OC)=C/C(C)=C/[C@@H](C)[C@@H](O)[C@@H](CC)[C@@H](O)[C@H](C)C/C(C)=C/C=C/[C@@H]2OC)C[C@@H](O)[C@@H]1C` [compound 38, 21-deoxy CMF], for which the “Nef inhibitory potency, in words (relative to parent or comparator)” value on HIV-Nef [2] is given as “no change in potency”.

Consider `CO/C1=C\C(C)=C\[C@@H](C)C(=O)[C@@H](C)C/C(C)=C/C=C/[C@H](OC)[C@@H]([C@@H](C)[C@@H](O)[C@H](C)[C@@]2(O)C[C@@H](O)[C@H](C)[C@@H](C(C)C)O2)OC1=O` [compound 20], for which, on HIV-Nef [2], the “Nef inhibitory potency, in words (relative to parent or comparator)” value is on record as “reduced activity at all concentrations tested” and the “Nef IC50” value is on record as “above the activity threshold”. The “Lysotracker IC50” value at V-ATPase [3] is recorded as “above the activity threshold”.

In the case of `C/C=C/[C@H]1O[C@@H]([C@@H](C)[C@H](O)[C@H](C)[C@H]2OC(=O)/C(OC)=C/C(C)=C/[C@@H](C)[C@@H](O)[C@@H](CC)[C@@H](O)[C@H](C)C/C(C)=C/C=C/[C@@H]2O)C[C@@H](O)[C@@H]1C` [compound 39, 21-deoxy-16-hydroxy CMF], on HIV-Nef [2] (vs CMF), the “reduction of Nef inhibitory activity compared to CMF (24)” value is on record as “over 200 fold”.

The values are drawn from article PMC10978252 (Journal of medicinal chemistry, 2024).
